Results reported in paper PMC10002963, “[4+2]-Cycloaddition to 5-Methylidene-Hydantoins and 5-Methylidene-2-Thiohydantoins in the Synthesis of Spiro-2-Chalcogenimidazolones” (International Journal of Molecular Sciences, 2023).
≈ marks a conversion by molar mass, not a printed value. Read-outs that look alike come from different tables or passages of the source.

Assays:
[1] = test system: HEK293T cell line; experiment: MTT cytotoxicity assay, HEK293T; type: cell-based, human
Description: (§1) Some of the obtained spiro-derivatives were tested for cytotoxicity using the standard MTT assay. Cytotoxicity was evaluated using the cell lines of various etiologies: breast cancer MCF7, human lung carcinoma A549, non-cancer human embryonic kidney cell line HEK293T, and non-cancer lung fibroblast VA13 cell line. Lung cancers and breast cancers are among the most common causes of tumor lesions and related death in the world, and non-cancerous cells were applied for the specificity of action evaluation. The results are shown in Table 5; the dose-response dependency graphs are available in Supplementary Information.
(§2) Cell cultures. Human embryonic kidney HEK293T cell line was kindly provided by Dr. E. Knyazhanskaya; immortalized human fibroblasts cell line VA13 was kindly provided by Dr. M. Rubtsova; human breast cancer cell line MCF7 and human lung adenocarcinoma cell line A549 were kindly provided by Dr. S. Dmitriev. MCF7, VA13, A549, and HEK293T cell lines were maintained in DMEM/F-12 (Thermo Fisher Scientific, Waltham, Massachusetts, USA) culture medium containing 10% fetal bovine serum (Thermo Fisher Scientific, Waltham, Massachusetts, USA) and 50 µg/mL penicillin and 0.05 mg/mL streptomycin at 37°C (Thermo Fisher Scientific, Waltham, Massachusetts, USA) in 5% CO2. Cells were maintained at 37°C in a humidified incubator MCO-18AC (Sanyo, Japan) supplied with 5% CO2. Cell cultures were tested for the absence of mycoplasma.
(§3) In Vitro Survival Assay (MTT Assay). The cytotoxicity was tested using the MTT (3-(4,5-dimethylthiazol-2-yl)2,5-diphenyl tetrazolium bromide) assay with some modifications. A total of 2500 cells per well for the MCF7, HEK293T cell lines, 3000 cells for the A549 cell line, or 4000 cells per well for the VA-13 cell line were plated out in 135 µL of DMEM-F12 media (Gibco, USA) in a 96-well plate and then incubated in the 5% CO2 incubator for first 20 h without treating. After this, 15 µL of media-DMSO solutions of tested substances were added to the cells (final DMSO concentrations in the media were 0,5% or less) and treated for65 h with 45 nM–100 µM (eight dilutions) of our substances (triplicate each) and doxorubicin as a control substance. Then the MTT reagent (Paneco LLC, Moscow, Russia) was added to cells up to the final concentration of 0.5 g/L (10 × stock solution in PBS was used), and cells were incubated for 2 h at 37 °C under an atmosphere of 5% CO2. Then the MTT solution was discarded, and 140 µL of DMSO (PharmaMed LLC, Russia) was added. The plates were swayed on a shaker (200 rpm) to dissolve the formazan. The absorbance was measured using a microplate reader (VICTOR ×5 Light Plate Reader, PerkinElmer, USA) at a wavelength of 555 nm (in order to measure formazan concentration). The results were used to construct dose-response graphs and to estimate IC50absvalues (IC50abs is the concentration resulting in a two-fold decrease in the number of cells in comparison with the untreated cells) and, in some cases, IC50 values (IC50 is the concentration resulting in half of the maximal cytotoxic effect) with GraphPadSoftware, Inc., San Diego, CA, USA.

[2] = test system: VA13 cell line; experiment: MTT cytotoxicity assay, VA13; type: cell-based, human
Description: as §1, §2, §3

[3] = test system: A549 cell line; experiment: MTT cytotoxicity assay, A549; type: cell-based, human
Description: as §1, §2, §3

[4] = test system: MCF7 cell line; experiment: MTT cytotoxicity assay, MCF7; type: cell-based, human
Description: as §1, §2, §3

[5] = test system: E. coli BW25113 DTC; experiment: Minimal inhibitory concentration, E. coli BW25113 DTC; type: cell-based, Escherichia coli
Description: (§4) Then the minimal inhibitory concentration (MIC) was measured for E. coli BW25113 DTC and E. coli K-12 (WT) for the 12 most bacteriotoxic compounds from the plate test.
(§5) Determination of Minimal Inhibitory Concentration (MIC). MIC values were determined by monitoring growth in 96-well plates of E. coli cultures exposed to serial dilutions of compounds. Specifically, overnight E. coli BW25113 DTC and K12 cultures were diluted in 96-well plates to an OD590 of 0.01 in LB medium. The wells were then supplemented with the solution of each tested compound at concentrations of 1 mM, 500 µM, 250 µM, 125 µM, 62.5 µM, 31.25 µM, 15.63 µM, 7.81 µM, 3.91 µM, and 1.95 µM. Then the plates were incubated with shaking (200 r.p.m.) overnight at 37°C, and cell growth was assessed by scanning OD590 each well with a VictorX5 reader.

[6] = test system: E. coli K-12 (WT); experiment: Minimal inhibitory concentration, E. coli K-12; type: cell-based, Escherichia coli; conditions: LB medium, overnight 37°C, >1000 = inactive in this test
Description: as §4, §5

[7] = 65-h treatment, Cmax 100 µM, read-out: IC50abs
[8] = VA13, 65-h treatment, MTT, Cmax 100 µM, read-out: IC50abs
[9] = A549, 65-h treatment, MTT, Cmax 100 µM, read-out: IC50abs
[10] = Table S1, read-out: IC50 (concentration resulting in half of the maximal cytotoxic effect)
[11] = MCF7, 65-h treatment, MTT, Cmax 100 µM, read-out: IC50abs
[12] = MCF7, MTT, Table S1, read-out: IC50 (concentration resulting in half of the maximal cytotoxic effect)
[13] = VA13, MTT, Table S1, read-out: IC50 (concentration resulting in half of the maximal cytotoxic effect)
[14] = A549, MTT, Table S1, read-out: IC50 (concentration resulting in half of the maximal cytotoxic effect)
[15] = E. coli BW25113 DTC, LB medium, overnight 37°C, >1000 = inactive in this test
[16] = Homo sapiens, HEK-293T, 65-h treatment, Cmax 100 µM, read-out: IC50abs
[17] = Homo sapiens, MCF7, 65-h treatment, MTT, Cmax 100 µM, read-out: IC50abs
[18] = Homo sapiens, VA-13, VA13, 65-h treatment, MTT, Cmax 100 µM, read-out: IC50abs
[19] = Homo sapiens, A549, 65-h treatment, MTT, Cmax 100 µM, read-out: IC50abs

Compound | IC50 [1, 7] [µM] | IC50 [2, 8] [µM] | IC50 [3, 9] [µM] | IC50 [4, 11] [µM] | IC50 [1, 16] [µM] | IC50 [4, 17] [µM] | IC50 [2, 18] [µM] | IC50 [3, 19] [µM] | also measured
CC1=C(C)CC2(CC1)NC(=S)N(c1ccccc1F)C2=O (racemic) [Compound 54] | 29.6 ± 3 | > 100 | 49.5 ± 5 | – | – | – | – | – | –
CC1=C(C)CC2(CC1)NC(=S)N(c1ccccc1Cl)C2=O (racemic) [Compound 55] | ~5 | > 100 | ~10 | ~100 | – | – | – | – | IC50 [1, 10]: 3.1 µM; IC50 [4, 12]: 1.5 µM; IC50 [2, 13]: 1.9 µM; IC50 [3, 14]: 2.1 µM; MIC [5, 15]: >1000 µM; MIC [6]: >1000 µM
CC1=C(C)CC2(CC1)NC(=S)N(c1cccc(C)c1)C2=O (racemic) [Compound 56] | 22 ± 8 | 98.7 ± 17.6 | > 100 | – | – | – | – | – | –
CC1=C(C)CC2(CC1)NC(=S)N(c1ccc(F)cc1)C2=O (racemic) [Compound 58] | 13.7 ± 2.3 | 45 ± 7.5 | 23.2 ± 3.5 | 59 ± 13.3 | – | – | – | – | –
COc1ccc(N2C(=O)C3(CCC(C)=C(C)C3)NC2=S)cc1 (racemic) [Compound 60] | 10.2 ± 1.3 | 75.3 ± 17 | 52.2 ± 5.7 | 98.3 ± 19.8 | – | – | – | – | MIC [5, 15]: >1000 µM; MIC [6]: >1000 µM
CC1=C(C)CC2(CC1)NC(=S)N(c1c(C)cccc1C)C2=O (racemic) [Compound 61] | ~4 | – | ~10 | ~100 | – | – | – | – | IC50 [1, 10]: 1.4 µM; IC50 [4, 12]: 0.9 µM; IC50 [2, 13]: 0.4 µM; IC50 [3, 14]: 4.2 µM
O=C1N[C@@]2(C[C@@H]3C=C[C@H]2C3)C(=O)N1c1ccccc1 [Compound 28a] | – | – | – | – | > 100 | > 100 | > 100 | > 100 | MIC ([5]; Escherichia coli, BW25113): > 1000 µM; MIC ([6]; Escherichia coli): > 1000 µM
O=C1NC2(CC3C=CC2C3)C(=O)N1c1ccccc1 (stereo not drawn) [Compound 28b] | > 100 | > 100 | > 100 | > 100 | – | – | – | – | MIC [5, 15]: >1000 µM; MIC [6]: >1000 µM
O=C1N(c2ccccc2)C(=S)NC12CC1C=CC2C1 (stereo not drawn) [Compound 34a] | – | – | – | – | 83 ± 3.7 | > 100 | > 100 | > 100 | –
O=C1N(c2ccccc2F)C(=S)NC12CC1C=CC2C1 (stereo not drawn) [Compound 35b] | 87.4 ± 9.9 | > 100 | > 100 | > 100 | – | – | – | – | MIC [5, 15]: 1000 µM (≈ 288 µg/mL); MIC [6]: >1000 µM
Cc1cccc(N2C(=O)C3(CC4C=CC3C4)NC2=S)c1 (stereo not drawn) [Compound 37a] | > 100 | > 100 | > 100 | > 100 | – | – | – | – | –
COc1cccc(N2C(=O)C3(CC4C=CC3C4)NC2=S)c1 (stereo not drawn) [Compound 38a] | – | > 100 | > 100 | > 100 | – | – | – | – | –
COc1ccc(N2C(=O)C3(CC4C=CC3C4)NC2=S)cc1 (stereo not drawn) [Compound 39b] | – | > 100 | > 100 | > 100 | – | – | – | – | –
O=C1NC2(C(=O)N1c1ccccc1)C1C=CC(C1)C2Br (stereo not drawn) [Compound 40a] | 56.4 ± 2.5 | > 100 | > 100 | > 100 | – | – | – | – | MIC [5, 15]: 1000 µM (≈ 333 µg/mL); MIC [6]: >1000 µM
O=C1NC2(C(=O)N1c1ccccc1)C1C=CC(C1)C2I (stereo not drawn) [Compound 41a] | 69.1 ± 4.8 | > 100 | > 100 | > 100 | – | – | – | – | MIC [5, 15]: 1000 µM (≈ 380 µg/mL); MIC [6]: >1000 µM
O=C1N(c2ccccc2)C(=S)NC12CC1C=CC2CC1 (stereo not drawn) [Compound 45a] | – | – | – | – | 21.3 ± 2.3 | – | > 100 | 85.2 ± 10.1 | IC50 ([4]; Homo sapiens, MCF7, 65-h treatment, MTT, Cmax 100 µM, marked **, read-out: IC50abs, calculated by data extrapolation, exceeds Cmax): > 100 µM
Cc1cccc(C)c1N1C(=O)C2(CC3C=CC2CC3)NC1=S (stereo not drawn) [Compound 51a] | – | – | – | – | > 100 | > 100 | > 100 | > 100 | MIC ([5]; Escherichia coli, BW25113): > 1000 µM; MIC ([6]; Escherichia coli): > 1000 µM
COc1cccc(N2C(=O)C3(CCC(C)=C(C)C3)NC2=S)c1 (stereo not drawn) [Compound 57] | – | – | – | – | 18.3 ± 1.7 | 50.6 ± 5.2 | 80.8 ± 13.7 | 35.4 ± 4.8 | –
CC1=C(C)CC2(CC1)NC(=S)N(c1ccc(Cl)cc1)C2=O (stereo not drawn) [Compound 59] | 4.4 ± 0.6 | 52.6 ± 7.8 | 26.2 ± 3.9 | 76.6 ± 16 | – | – | – | – | –
CC1=C(C)CC2(CC1)NC(=S)N(c1ccc(F)c(Cl)c1)C2=O (stereo not drawn) [Compound 62] | – | – | – | – | 6.8 ± 0.3 | 11.1 ± 0.6 | 9.8 ± 0.4 | 7.9 ± 0.4 | MIC ([5]; Escherichia coli, BW25113): 1000 µM (≈ 339 µg/mL); MIC ([6]; Escherichia coli): > 1000 µM
CSC1=NC2(CC3C=CC2C3)C(=O)N1c1ccccc1 (stereo not drawn) [Compound 72] | – | – | – | – | 60.1 ± 3.4 | > 100 | > 100 | > 100 | MIC ([5]; Escherichia coli, BW25113): 500 µM (≈ 142 µg/mL); MIC ([6]; Escherichia coli): > 1000 µM
O=C1N[C@@]2(C[C@@H]3C=C[C@H]2C3)C(=O)N1c1ccccc1Cl [Compound 75] | – | – | – | – | 99 ± 11.1 | > 100 | > 100 | > 100 | MIC ([5]; Escherichia coli, BW25113): 500 µM (≈ 144 µg/mL); MIC ([6]; Escherichia coli): > 1000 µM
Cc1cccc(N2C(=O)N[C@@]3(C[C@@H]4C=C[C@H]3C4)C2=O)c1 [Compound 76] | – | – | – | – | 48.6 ± 2.4 | 86.4 ± 7.3 | – | – | IC50 ([2]; Homo sapiens, VA-13, VA13, 65-h treatment, MTT, Cmax 100 µM, marked **, read-out: IC50abs, calculated by data extrapolation, exceeds Cmax): > 100 µM; IC50 ([3]; Homo sapiens, A549, 65-h treatment, MTT, Cmax 100 µM, marked **, read-out: IC50abs, calculated by data extrapolation, exceeds Cmax): > 100 µM; MIC ([5]; Escherichia coli, BW25113): 125 µM (≈ 33.5 µg/mL); MIC ([6]; Escherichia coli): > 1000 µM
COc1cccc(N2C(=O)NC3(CCC(C)=C(C)C3)C2=O)c1 (stereo not drawn) [Compound 77] | – | – | – | – | – | – | – | – | MIC ([5]; Escherichia coli, BW25113): 125 µM (≈ 37.5 µg/mL)
